Assay results published in patent publication US6444644B1, “Anticoagulant peptide fragments derived from apolipoprotein B-100” (University College London, priority 1996, dated 2002).
No end group written: not given here.

Key:
factor Xa = factor Xa (Homo sapiens, UniProt P00742); assay: Influence on factor Xa activity (amidolytic and clotting in factor Xa-deficient plasma); assay type: biochemical
Method: Samples (1 ml) of either KRAD-14 peptide (500 nM) or the control peptide 500 nM) were incubated with pre-activated factor Xa (100 nM) at 37° C. and the factor Xa activity measured at the beginning and at intervals up to 60 min as follows. The enzymatic activity of factor Xa was measured by the addition of 100 μl aliquots to 0.45 ml of thrombin substrate (N-benzoyl-ile-glu-gly-arg-p-nitroanilide) (0.26 mM) which was then incubated at 37° C. for exactly 10 min, before the addition of 0.45 ml of 20% (w/v) acetic acid. The absorption was measured at 405 nm against a factor Xa (100 nM) control assayed similarly. The procoagulant activity of factor Xa was measured by the addition of 100 μl of the sample to factor Xa-deficient plasma (100 μl) and […] CACl2 solution and measuring the clotting time. A factor Xa (100 nM) control was included in the assay against which comparisons were made.
Three 1 ml samples containing recombinant KRAD-14 peptide (20 (♦), 40 (▾) and 80 (▪) nM) were mixed with factor Xa (100 nM). […] The rest of the samples were incubated at 37° C. and further 100 μl samples were removed at intervals up to 40 min and measured as before. The activity was measured against a standard curve and the percentage inhibition calculated against the initial factor Xa activity. […]

platelets = assay: Activation of platelets by thrombin; assay type: cell-based
thromboplastin [1] = biological target: T1, thromboplastin (Homo sapiens, UniProt P13726); assay: Time-course inhibition of thromboplastin procoagulant activity (one-stage prothrombin time and two-stage amidolytic assay); assay type: biochemical; conditions: 500 nM, thromboplastin 100 nM (10 U/ml), 37° C.
T1 construct: purchased Gamidor Ltd. (Oxfordshire, U.K.)
T1 sequence (P13726 33-295): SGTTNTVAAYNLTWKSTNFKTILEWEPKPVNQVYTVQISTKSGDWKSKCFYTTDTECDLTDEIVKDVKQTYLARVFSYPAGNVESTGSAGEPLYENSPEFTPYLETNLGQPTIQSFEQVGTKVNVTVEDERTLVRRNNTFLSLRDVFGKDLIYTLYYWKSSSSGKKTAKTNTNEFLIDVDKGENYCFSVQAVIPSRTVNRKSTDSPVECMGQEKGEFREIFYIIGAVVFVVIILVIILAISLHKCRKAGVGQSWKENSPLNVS
Method: The one stage prothrombin time assay was carried out by the addition of 100 μl of the sample to 100 μl of 25 mM CaCl2 solution and incubation prior to addition of 100 μl of control plasma. The clotting time was measured on the coagulometer. The two-stage amidolytic assay was carried according to published procedures. In all cases the thromboplastin activity was calculated from a standard curve prepared previously and the percentage inhibition was calculated as 100×[…].
The apolipoprotein B-100 control peptide (fragment 3358-3372) containing the sequence TRLTRKRGLKLATAL was reconstituted in distilled water to 1 mM. The freeze-dried samples were reconstituted in distilled water to a concentration of 1 mM. Two 200 μl samples of thromboplastin (10 U/ml) were incubated with 500 nM KRAD-14 or apolipoprotein B-100 control peptide at 37° C. for 45 min. Another set of 200 μl samples of thromboplastin (10 U/ml) were incubated with either 500 nM KRAD-98 or the chloramphenicol acetyltransferase control protein. […] Following the incubation the thromboplastin activity in all the samples was measured by means of the one-stage prothrombin time assay and the two-stage amidolytic assay and the percentage inhibition calculated against the control containing distilled water.
The above experiments were repeated using 1 ml samples containing recombinant thromboplastin (10 U/ml) mixed with either 500 nM KRAD-14, 500 nM KRAD-98 or 500 nM apolipoprotein B-100, reconstituted as described before. The concentrations used are equivalent to that of apolipoprotein B-100 in normal plasma. 100 μl of the each sample was removed immediately and assayed for thromboplastin activity, by means of the one-stage prothrombin time assay. The rest of the samples were incubated at 37° C. and further 100 μl samples were removed at intervals up to 120 min and measured as before. The percentage inhibition was calculated against a control sample of thromboplastin.
Three 1 ml samples containing recombinant thromboplastin (10 U/ml) were mixed with 500 nM KRAD-14 (solid square), 500 nM KRAD-98 (open square) or 500 nM apolipoprotein […] (triangle), reconstituted as described before. The concentrations used are equivalent to that of apolipoprotein B-100 in normal plasma. 100 μl of the each sample was removed immediately and assayed for thromboplastin activity, by means of the one-stage prothrombin time assay. The rest of the samples were incubated at 37° C. and further 100 μl samples were removed at intervals up to 120 min and measured as before. The thromboplastin activity was calculated from a standard curve prepared previously and the percentage inhibition was calculated as 100×[…]. The curves are typical of data from four sets of experiments.

thromboplastin [2] = biological target: T1, thromboplastin; assay: Effect of KRAD-14 concentration on thromboplastin inhibition (one-stage prothrombin time assay); assay type: biochemical
Method: The synthetic KRAD-14 peptide was reconstituted in distilled water at 1 mM. Aliquots of recombinant thromboplastin were incubated, at 37° C. with a KRAD-14 at concentration range 10-5000 nM (final concentration) for 1 min prior to assaying using the one-stage prothrombin time assay. In addition, samples of thromboplastin (10 U/ml) were incubated with synthetic KRAD-14 at concentrations ranging from 1-100 μM (final concentration) prior to assaying using the one-stage prothrombin time assay.
Aliquots of recombinant thromboplastin were incubated, at 37° C. with a KRAD-14 at concentration range 10-5000 nM (final concentration) for 1 min prior to assaying using the one-stage prothrombin time assay. The percentage inhibition was calculated as 100×([…])/Initial activity. The experiment was performed in triplicate.
Samples of thromboplastin (10 U/ml) were incubated with synthetic KRAD-14 concentration ranging 1-100 μM (final concentration) prior to assaying using the one-stage prothrombin time assay. The percentage inhibition was calculated as 100×([…])/Initial activity. The experiment was performed in triplicate.
Aliquots (1 ml) of recombinant thromboplastin (100 nM) were incubated at 37° C. with a KRAD-14 peptide at concentration range 50 (♦), 100 (▾), 200 (▪), 300 (⋄) and 500 nM (□) (final concentration). 100 μl of the each sample was removed immediately and assayed for thromboplastin activity, by means of the one-stage prothrombin time assay. The rest of the samples were incubated at 37° C. and further 100 μl samples were removed at intervals up to 40 min and measured. The percentage inhibition was calculated as 100×(Initial activity-Residual activity)/Initial activity. The data were obtained from 3 separate experiments.

Chain of factor Xa (P00742 235-488 limits assumed): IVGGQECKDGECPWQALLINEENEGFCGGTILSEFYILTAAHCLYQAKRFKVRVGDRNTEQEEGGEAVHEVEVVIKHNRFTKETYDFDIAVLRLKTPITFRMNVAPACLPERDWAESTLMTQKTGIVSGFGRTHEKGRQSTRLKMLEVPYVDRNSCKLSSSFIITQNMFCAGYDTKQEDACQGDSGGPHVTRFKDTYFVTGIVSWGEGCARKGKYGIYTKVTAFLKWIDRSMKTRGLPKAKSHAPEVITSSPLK
Chain of factor Xa (P00742 41-179 limits assumed): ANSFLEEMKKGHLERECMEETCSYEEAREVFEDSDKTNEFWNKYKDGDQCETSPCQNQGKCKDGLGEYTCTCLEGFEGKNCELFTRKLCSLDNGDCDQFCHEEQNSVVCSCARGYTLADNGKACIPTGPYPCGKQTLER

effect on the amidolytic activity of factor Xa (factor Xa; 500 nM peptide): did not affect
Kd (factor Xa; factor Xa 100 nM, 37° C., factor Xa deficient plasma, read-out: Kdapp, inhibition of coagulation upon pre-incubation with factor Xa): 275 nM
inhibition at 0.5 µM (thromboplastin [1]; 2 min incubation): 90%
inhibition at 0.5 µM (thromboplastin [1]; 4 min incubation (maximum)): 98%
lowest concentration effective in inhibiting thromboplastin (thromboplastin [2]; 1 min preincubation at 37° C.): 50 nM
Kd (thromboplastin [2]; thromboplastin 100 nM, KRAD-14 peptide 1-5000 nM, 1 min at 37° C., read-out: Kdapp, inhibition of thromboplastin): 37 nM
Sequence: KAQSKKNKHRHSTT [KRAD-14]
effect on the activation of platelets by thrombin (platelets): seems to affect the activation of platelets by thrombin
inhibition of thromboplastin compared with the recombinant peptide (in words) (thromboplastin [2]; synthetic peptide): inhibitory towards thromboplastin with similar effectiveness as the recombinant peptide
